According to US7550469B2, “Heterocyclic amide derivatives and their use as dopamine D3 receptor ligands” (Aventis Pharmaceuticals Inc., priority 2001, dated 2009):
pKi: −log10 of the molar value.

Molecular target: T1, cloned human alpha-1A adrenergic receptors (α1a) (Homo sapiens, UniProt P35348)
T1 construct: expressed in transfected cells; host or cells: CHO cells, G418-resistant clone, pcDNA3 vector; membrane fragments
T1 sequence (P35348 1-466): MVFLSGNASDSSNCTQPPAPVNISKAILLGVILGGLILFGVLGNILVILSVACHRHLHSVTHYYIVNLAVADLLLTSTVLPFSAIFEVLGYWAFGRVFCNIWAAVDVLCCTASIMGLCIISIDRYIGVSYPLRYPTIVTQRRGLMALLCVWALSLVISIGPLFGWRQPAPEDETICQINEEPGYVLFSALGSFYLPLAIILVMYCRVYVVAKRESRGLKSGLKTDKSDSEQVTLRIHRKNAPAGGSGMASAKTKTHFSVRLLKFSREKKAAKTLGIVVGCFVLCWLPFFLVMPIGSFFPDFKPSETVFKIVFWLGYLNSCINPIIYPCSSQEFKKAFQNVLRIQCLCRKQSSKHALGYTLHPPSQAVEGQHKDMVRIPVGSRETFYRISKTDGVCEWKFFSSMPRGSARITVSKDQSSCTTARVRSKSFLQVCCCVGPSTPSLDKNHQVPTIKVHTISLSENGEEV
Assay: [3H]Prazosin binding to cloned human alpha-1A adrenergic receptors expressed in CHO cells
Conditions: Inh @ 1 uM
From the text: ^3H]PRAZOSIN BINDING TO CLONED HUMAN ALPHA-1A ADRENERGIC RECEPTORS (α1a) EXPRESSED IN CHINESE HAMSTER OVARY CELLS (CHO)
Purpose: This in vitro assay is designed as a screen to identify compounds displaying a affinity for the human α1a adrenoceptor subtype expressed in the membrane fragments of CHO cells. The assay measures the ability of the test compounds to displace [^3H] prazosin from α1a sites. • The identification of multiple vascular α1-addrenoceptors (α1a, α1b, α1d) in vitro has provided impetus to define the role(s) of these subtypes in cardiovascular regulation in vivo (Vargas and Gorman, 1995). […] Prazosin is a potent antagonist of the human α1a-adrenoceptor subtype, which has been cloned and is expressed in the membrane fragments of CHO cells. hα1a Receptor: The cloning of the human α1a cDNA was accomplished first by screening a human prostate cDNA library (Clontech), from which a portion of the coding region was obtained. This DNA fragment was then used to screen a human leukocyte genomic library (Clontech), and the rest of the coding sequence was obtained. Later these two fragments were spliced together. The entire coding sequence was then fully sequenced including matching PCR sequence with original genomic coding sequence, thus ensuring splice sites were joined correctly (Schwinn et al., 1995). Once sequenced, the gene was subcloned into the expression vector pcDNA3 (Invitrogen). Plasmid DNA was then used for transfection into CHO cells and G418 resistant clones were isolated. A clone expressing high levels of the hα1a receptor (as determined by mRNA and receptor binding data) was chosen and pharmacologically characterized. Culture Media: Media Ingredients for Adherent α1a expressing CHO Culture: • A. HAM's F-12 (Cellgro) • B. 10% 0.2 micron filtered Fetal Bovine Serum (FBS)(Cellgro) • C. 1% 0.2 micron filtered Penicillin-Streptomycin (Celigro) • D. G418 0.2 micron filtered (Geneticin 400 μg/ml)(Cellgro) • Cells are cultured using established methods and procedures in either 150×25 mm culture plates (scale up to 100 plates) or a combination of these plates and 70 roller bottles. One culturing/harvest cycle typically requires 2 weeks and yields between 100-400 mg protein. Plates or bottles are incubated at 37° C.+5% CO2. Storage: Cells are harvested by mechanical scraping, washed using PBS, collected in 250 ml Corning polypropylene centrifuge tubes, spun down (1500RPM) and resuspended in dH2O 10% DMSO (final volume per harvest is approximately 50 ml). Protein determination is made using the Biorad DC Assay Kit. Finally, the appropriate volume is aliquoted into a 2 ml Corning Cryovial (10 mg/1-1.5 ml) which is stored at −80° C. Current Lot Data:
Assay Requirement: 0.5 cryovials per 96 well plate (assay volume=200 μl/well) [^3H]-Ligand: [7-methoxy-^3H]-Prazosin: 1.0 nM (NEN, NET-823) • 70-87 Ci/mmol Materials: Phentolamine mesylate (Research Biochemicals Int. #P-131) • 96 well flat bottom plates (Beckman) • Unifilter GF/B Plate (Packard) • Polyethylenimine (Sigma #P-3134) • TomTec or Packard Filtermate 196 Cell Harvesters • Packard TopCount Scintillation Counter Buffers: A: 50 mM Tris HCl; 0.1% ascorbate, pH 7.7 (incubation buffer) • B: 50 mM Tris HCl; pH 7.7 (wash buffer) Procedure: Assay additions are as follows (in the order indicated): • Total Binding=50 μl buffer A+50 μl [^3H]prazosin+100 μl membrane • Nonsp. Bd.=50 μl 10 μM phentolamine+50 μl [^3H]prazosin+100 μl membrane • Test Cpd.=50 μl compound+50 μl [^3H]prazosin+100 μl membrane • Compounds to be evaluated are weighed out to yield a 10 mM stock solution in DMSO in a 24 well polystyrene plate. This is diluted to a 0.5 mM stock in dH2O. Serial dilutions in Buffer A are made from which 50 μl additions to the plate are made in duplicate in order to achieve the final concentrations desired. Typically, one 96 well plate is used to evaluate 11 compounds at 4 concentrations (10^−6-10^−9 M) in duplicate. […]

Row | halpha 1 % I h = human [% Inh @ 1 uM] | SMILES
1 | 24 | O=C(NCCCCN1CCN(c2csc3cc(C(F)(F)F)ccc23)CC1)c1ccc(C(F)(F)F)cc1 [compound 815555]
2 | 27 | O=C(NCCCCN1CCN(c2csc3cc(C(F)(F)F)ccc23)CC1)c1ccc(Cl)cc1 [compound 815548]
3 | 40 | COc1ccccc1C(=O)NCCCCN1CCN(c2csc3cc(C(F)(F)F)ccc23)CC1 [compound 815554]

Same assay, conditions: Inh @ 10 uM

Row | halpha 1 % I h = human | SMILES
4 | 48% Inh @ 10 uM | CCOc1ccc(C(=O)NCCCCN2CCN(c3csc4cc(C(F)(F)F)ccc34)CC2)cc1 [compound 815541]
5 | 25% Inh @ 10 uM | CCCCOc1ccc(C(=O)NCCCCN2CCN(c3csc4cc(C(F)(F)F)ccc34)CC2)cc1 [compound 815545]
6 | 18.7% @ 10 uM | O=C(NCCCCN1CCN(c2csc3cc(C(F)(F)F)ccc23)CC1)c1ccc(-c2ccccc2)cc1 [815547A]

Same assay, conditions: h = human; piperazines (n = 1) vs homopiperazines (n = 2); read-out: h-α1 Ki

Row | pKi | SMILES
7 | 7.08 | O=C(NCCCCN1CCCN(c2csc3cc(F)ccc23)CC1)c1cc2ccccc2s1 [822224G]
8 | 6.91 | O=C(NCCCCN1CCCN(c2csc3cc(F)ccc23)CC1)c1ccc(OC(F)(F)F)cc1 [compound 822152]
9 | 6.68 | CC(C)(C)c1ccc(C(=O)NCCCCN2CCCN(c3csc4cc(F)ccc34)CC2)cc1 [compound 822198]
10 | 8.25 | O=C(NCCCCN1CCCN(c2csc3cc(F)ccc23)CC1)c1ccco1 [S981843]
11 | 7.56 | COc1ccccc1C(=O)NCCCCN1CCCN(c2csc3cc(F)ccc23)CC1 [compound 822157]
12 | 7.38 | O=C(NCCCCN1CCCN(c2csc3cc(F)ccc23)CC1)c1cccc(F)c1 [compound 822154]
13 | 6.91 | O=C(NCCCCN1CCCN(c2csc3cc(F)ccc23)CC1)c1ccc2ccccc2c1 [822223G]

Same assay, conditions: human α-1; 6-fluoro vs 6-trifluoromethyl benzo[b]thiophene pairs; read-out: halpha 1 Ki (nM) h = human

Row | SMILES | Ki [nM]
14 | O=C(NCCCCN1CCN(c2csc3cc(C(F)(F)F)ccc23)CC1)c1ccc2c(c1)OCO2 [compound 815544] | 62
15 | O=C(NCCCCN1CCN(c2csc3cc(C(F)(F)F)ccc23)CC1)c1ccco1 [compound 815556] | 12
16 | O=C(NCCCCN1CCN(c2csc3cc(C(F)(F)F)ccc23)CC1)c1c(F)cccc1F [compound 815557] | 72
17 | O=C(NCCCCN1CCN(c2csc3cc(C(F)(F)F)ccc23)CC1)c1sc2ccccc2c1Cl [compound 815546] | 59
18 | O=C(NCCCCN1CCN(c2csc3cc(C(F)(F)F)ccc23)CC1)c1cc2ccccc2s1 [814238A] | 78.3

Continued, values first:

Row | Ki [nM] | SMILES
19 | 80 | O=C(NCCCCN1CCN(c2csc3cc(C(F)(F)F)ccc23)CC1)c1ccc(Br)cc1 [compound 815551]
20 | 1110 | CCOc1ccc(C(=O)NCCCCN2CCN(c3csc4cc(C(F)(F)F)ccc34)CC2)cc1 [compound 815541]
21 | 68 | O=C(NCCCCN1CCN(c2csc3cc(C(F)(F)F)ccc23)CC1)c1ccc(F)cc1F [compound 815542]
